In one data set the test system is hES cell lines. Nature of the data set: Karyotyping. The class given is cell-based, human. To be noted: HS181 12 passages and H1 10 passages in O3 medium; H1 7 passages in TeSR2. The method, then:
Karyotyping of the cell lines was carried out using standard Q-banding techniques. Samples of cells were treated with colcemid KaryoMAX (0.1 μg/ml; Gibco Invitrogen Corporation) for up to 4 hours, followed by dissociation with Trypsin/EDTA solution (Gibco Invitrogen Corporation). The cells were pelleted via centrifugation and re-suspended in pre-warmed 0.0375 M KCl hypotonic solution and incubated for 10 minutes. Following centrifugation, the cells were resuspended in fixative (3:1 methanol:acetic acid). Metaphase spreads were prepared on glass microscope slides and G-banded by brief exposure to trypsin and stained with 4:1 Gurr's/Leishmann's stain (Sigma-Aldrich Co.). A minimum of 10 metaphase spreads were analyzed and additional 20 were counted.

The test system of data set [1] is Oct4, Nanog, SSEA4, PAX6, SOX17, SOX7. Nature of the data set: Expression of pluripotency and differentiation markers (immunofluorescence, RT-PCR, FACS). The class given is cell-based, human. To be noted: similar to cells on Matrigel passed as small clumps. The method, then:
For immunofluorescence studies, ES cells were cultured and fixed in 8-well slide chambers (BD Biosciences) or 96-well plate wells by 4% paraformaldehyde, permeabilized by 0.1% Triton-X and blocked by 10% bovine fetal serum (GIBCO Invitrogen Corporation) in phosphate-saline buffer (PBS) containing 0.1% Tween-20 (Sigma-Aldrich, St. Louis, http://www.sigmaaldrich.com) for one hour. Incubation with primary antibody was performed for 1.5 hours at room temperature. Incubation with secondary antibody and 4,6-diamidino-2-phenylindole (DAPI, Molecular Probes) was performed for 40 minutes. Between incubations, the specimens were washed with 0.1% Tween-20 in PBS buffer three to five times. Specimens were preserved in a fluorescence mounting medium (Dako, Glostrup, Denmark, http://www.dako.com), and observed under a fluorescence microscope (Leica, Heerbrugg, Switzerland, http://www.leica.com).
Total RNA was isolated using Absolutely RNA Microprep Kit (Stratagene, La Jolla Calif., www.stratagene.com) according to the manufacturer's instructions. cDNA was synthesized using 0.2 μg of total RNA in 20 μl reaction mixture, containing oligo(dT)12-18 primers and Superscript II reverse transcriptase (GIBCO Invitrogen Corporation), according to the manufacturer's instructions. […] All data was analyzed with 7300 System SDS Software v 1.4. […]

The next data set has as its system hES cells. As to the kind of experiment: Cell adhesion assay, 1 hour (Example 2). The class given is cell-based, human. To be noted: not shown. The method, then: Tissue cell culture plates were coated overnight at 4° C. with sterile solutions of the ECM proteins, such as human recombinant LN-521, all at a concentration of 30 μg/ml (5 μg/cm^2). Control plates were coated with Matrigel according to the STEMCELL Technologies' instructions. Prior to use, dishes were pre-warmed in an incubator for one hour after which prewarmed O3 medium was added without additional washing of the dish. After applying a fresh LN-521 solution to a new dish, the remaining LN-521 solution could be used at least once more. All the adhesion, survival, and inhibition of survival experiments were carried out using fresh coating materials.
Briefly, 96-well plates were coated by extracellular matrix proteins as described above and blocked by O3 medium containing bovine serum albumin. The ES cells were plated at cell density of 50,000 cells/cm^2 onto extracellular matrix-coated plates and left to adhere for 1 hour in a cell incubator. After that the plates were washed 3 times with the medium to remove the non-adherent cells, and then the adherent cells were fixed for 20 minutes by 5% glutaraldehyde, stained by 0.1% Crystal Violet. (Kebo Lab, Spanga, Sweden, http://www.kebolab.se). After one hour and 3 washes with water, Crystal Violet was extracted with 10% acetic acid and quantified by measuring optical density at 570 nm. All the experiments were performed in quadruplicate.

Another data set has as its system human ES cells. As to the kind of experiment: Long-term culture with single cell dissociation passaging (Example 1). It counts as cell-based. As for the experimental part: Human ES cells were cultured on r-laminin-521-coated laboratory dishes in chemically defined O3 medium (described in Rodin et al., Nature Biotechnol., vol. 28, pp. 611-615 (2010)) at 37° C. in 5% CO2. Cells were routinely passed once every 10-12 days by exposure to Trypsin-EDTA solution (GIBCO Invitrogen) for 5 minutes at 37° C. They were then gently pipetted to break into single-cell suspension and defined trypsin inhibitor (GIBCO Invitrogen) was added. The cell suspension was centrifuged […], the supernatant discarded, the cell pellet resuspended in prewarmed O3 medium, and cells were then passed through a 40 μm sieve. After that cells were plated on new r-laminin-521-coated dishes at a concentration 30 Kcells/cm^2 (1:25-1:30 split ratio). Cells were fed once a day with fresh medium prewarmed in an incubator for 1 hour, except for the first day after a passage, when only a few drops of fresh medium were added. Control cells of the same line were cultured on Matrigel (BD Biosciences) in O3 medium as described in Rodin et al., Nature Biotechnol., vol. 28, pp. 611-615 (2010). Control cells were passaged in pieces.

In the next data set the test system is human ES and iPS cells. Nature of the data set: Long-term self-renewal culture on LN-521 (Example 2). The class given is cell-based.

One substance from patent US10138292B2, “Cell culture medium” (BIOLAMINA AB, priority 2010, dated 2018) can be followed below.

As for “LN-521: protein formed by joining α5, β2 and γ1 laminin chains; human recombinant, produced in HEK293 cells”, the karyotype result in the data set with hES cell lines was “normal”. Moreover, the “expression of pluripotency markers Oct4, Nanog, and SSEA4” value in data set [1] is “stable expression levels”. For the same substance, the “spreading of the cells after one hour compared with Matrigel or LN-111” value in the data set on hES cells was “clearly better”. Besides, the “increase in the number of cells versus time compared with Matrigel” value in the data set with human ES cells (LN-521 single cell passaging vs Matrigel clumps) is “much faster rate”. In the data set on human ES cells (single cell suspension passaging every 10-12 days, 1:25 to 1:30 ratios (3 months)), the “passages with robust proliferation at stable and high rate” value is “at least 9 passages”. In addition, the passages cultured in the data set on human ES and iPS cells (ChiPSW cells, mTeSR1) is reported as 3 passages; with human ES and iPS cells (CutB1.2 iPS cells, mTeSR1) it was 5 passages; in the data set with human ES and iPS cells (H1 cells, TeSR2 (5 months)), 12 passages; with human ES and iPS cells (HS401 cells, TeSR2 (1.5 months)), 4 passages. Moreover, the passages of proliferation was no less than 15 passages in the data set on human ES and iPS cells (H1 cells, O3 medium (6 months)); “at least 24 passages” with human ES and iPS cells (HS181 cells, O3 medium (9 months)); no less than 5 passages with human ES and iPS cells (HS401 cells, O3 medium (2 months)).
